Assay results taken from US20140039044A1, “Hydroxylated Polymethoxyflavone Compositions” (WLLGEN, INC., priority 2006, published 2014).
Read-outs that look alike come from different tables or passages of the source.

Legend:
Format in all cases: cell-based, human
AGS cells [1] = experiment: Cell survival assay (antiproliferative IC50); details: Homo sapiens, read-out: Antiproliferative IC50
COLO205 cells [2] = experiment: Cell survival assay (antiproliferative IC50); details: Homo sapiens
HT-29 cells [3] = experiment: Cell survival assay (antiproliferative IC50); details: Homo sapiens
Summary of the method: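 HT-29 cells in RPMI 1640 with 10% heat-inactivated FBS, 2×10^5 per well, treated next day with compounds from DMSO stocks (0.05% DMSO final) for 24 h, or 1, 3 or 6 days. Growth read by hemocytometer count and CyQUANT total nucleic acid content; IC50 antiproliferative.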

AGS cells [4] = experiment: Apoptotic ratio by propidium iodide flow cytometry (AC50); details: Homo sapiens, read-out: Apoptosis-inducing AC50
Summary of the method: (§1)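 AC50 denotes the concentration that induces 50% apoptosis. It was derived from propidium iodide–DNA fluorescence measured by flow cytometry after ethanol fixation and RNase treatment. Cells were seeded at 2×10^5, grown 24 h, then exposed to test compounds for 24 h.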

COLO205 cells [5] = experiment: as above; details: Homo sapiens
Summary of the method: as §1

HL-60 cells [6] = experiment: as above; details: Homo sapiens
Summary of the method: as §1

HT-29 cells [7] = experiment: as above; details: Homo sapiens, read-out: Apoptosis-inducing AC50
Summary of the method: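 HT-29 cells (2×10^5) were treated with compound for 24 h, then fixed in ice-cold ethanol overnight and treated with Triton X-100/RNase at 37 °C for 30 min. They were stained with propidium iodide (50 μg/mL solution) on ice for 30 min. The apoptotic fraction was measured from PI-DNA fluorescence by flow cytometry, and AC50 was reported.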

HL-60 cells [8] = experiment: Cell cycle distribution by flow cytometry; details: 24 h; for Cell Cycle Distribution G0/G1 / Cell Cycle Distribution G2/M / Cell Cycle Distribution S: Table 10; for Cell cycle arrest, in words: 25-100 μM
Summary of the method: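 HL-60 cells were treated for 24 h with compound at 5, 10, 25, 50 or 100 μM, or with DMSO. Cells were then ethanol-fixed, treated with Triton X-100/RNase and stained with propidium iodide. DNA content was measured by flow cytometry to give cell-cycle phase distribution.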

HT-29 cells [9] = experiment: Cell cycle distribution by flow cytometry; details: for Cell Cycle Distribution G0/G1 / Cell Cycle Distribution G2/M / Cell Cycle Distribution S: 24 h; for Cell cycle arrest, in words: 5-100 μM, 24 h exposure
Summary of the method: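 Cells were treated 24 h with compound at 5, 10, 25, 50 or 100 μM, or with DMSO. They were then ethanol-fixed, RNase-treated and stained with propidium iodide. DNA content was measured by FACScan flow cytometry to give cell-cycle phase distribution.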

[10] = COLO 205, COLO205 cells, read-out: Antiproliferative IC50
[11] = COLO 205, COLO205 cells, read-out: Apoptosis-inducing AC50
[12] = HL-60 cells, read-out: Apoptosis-inducing AC50
[13] = COLO 205, read-out: Antiproliferative IC50
[14] = COLO 205, read-out: Apoptosis-inducing AC50
[15] = HL-60, read-out: Apoptosis-inducing AC50

SMILES | IC50 (HT-29 cells [3]) [µM] | AC50 (HT-29 cells [7]) [µM] | Cell Cycle Distribution G0/G1 (HL-60 cells [8]; 5 μM) | Cell Cycle Distribution G2/M (HL-60 cells [8]; 5 μM) | Cell Cycle Distribution S (HL-60 cells [8]; 5 μM) | Cell Cycle Distribution G0/G1 (HL-60 cells [8]; 10 μM) | Cell Cycle Distribution G2/M (HL-60 cells [8]; 10 μM) | Cell Cycle Distribution S (HL-60 cells [8]; 10 μM) | Cell Cycle Distribution G0/G1 (HL-60 cells [8]; 25 μM) | Cell Cycle Distribution G2/M (HL-60 cells [8]; 25 μM) | Cell Cycle Distribution S (HL-60 cells [8]; 25 μM) | Cell Cycle Distribution G0/G1 (HL-60 cells [8]; 50 μM) | Cell Cycle Distribution G2/M (HL-60 cells [8]; 50 μM) | Cell Cycle Distribution S (HL-60 cells [8]; 50 μM) | Cell Cycle Distribution G0/G1 (HL-60 cells [8]; 100 μM) | Cell Cycle Distribution G2/M (HL-60 cells [8]; 100 μM) | Cell Cycle Distribution S (HL-60 cells [8]; 100 μM) | Cell Cycle Distribution G0/G1 (HT-29 cells [9]; 5 μM) | Cell Cycle Distribution G2/M (HT-29 cells [9]; 5 μM) | Cell Cycle Distribution S (HT-29 cells [9]; 5 μM) | also measured
COc1cc(-c2cc(=O)c3c(OC)c(OC)c(OC)c(OC)c3o2)cc(OC)c1OC [F, 5,6,7,8,3′,4′,5′-heptamethoxyflavone, reference compound] | 96.4 ± 8.66 | > 100 | 42.11 ± 0.37 | 10.56 ± 1.16 | 47.34 ± 1.53 | 48.35 ± 1.83 | 10.59 ± 1.46 | 41.07 ± 0.37 | 57.82 ± 1.51 | 7.28 ± 1.54 | 34.90 ± 0.03 | 60.39 ± 0.23 | 8.44 ± 0.54 | 31.18 ± 0.30 | 63.66 ± 2.33 | 4.92 ± 0.46 | 31.43 ± 1.87 | 70.24 ± 0.52 | 7.11 ± 0.17 | 22.66 ± 0.35 | IC50 (AGS cells [1]; AGS cells): > 100 µM; IC50 (COLO205 cells [2]; [10]): 92.6 ± 15 µM; AC50 (AGS cells [4]; AGS cells): > 100 µM; AC50 (COLO205 cells [5]; [11]): > 100 µM; AC50 (HL-60 cells [6]; [12]): > 100 µM; Cell cycle arrest, in words (HL-60 cells [8]): significant G1 arrest; Cell Cycle Distribution G0/G1 (HT-29 cells [9]; 10 μM): 76.34 ± 0.35; Cell Cycle Distribution G2/M (HT-29 cells [9]; 10 μM): 7.06 ± 0.42; Cell Cycle Distribution S (HT-29 cells [9]; 10 μM): 16.61 ± 0.06; Cell Cycle Distribution G0/G1 (HT-29 cells [9]; 25 μM): 82.19 ± 0.16; Cell Cycle Distribution G2/M (HT-29 cells [9]; 25 μM): 6.83 ± 0.61; Cell Cycle Distribution S (HT-29 cells [9]; 25 μM): 10.98 ± 0.45; Cell Cycle Distribution G0/G1 (HT-29 cells [9]; 50 μM): 88.64 ± 0.27; Cell Cycle Distribution G2/M (HT-29 cells [9]; 50 μM): 6.25 ± 0.58; Cell Cycle Distribution S (HT-29 cells [9]; 50 μM): 5.11 ± 0.31; Cell Cycle Distribution G0/G1 (HT-29 cells [9]; 100 μM): 89.85 ± 0.13; Cell Cycle Distribution G2/M (HT-29 cells [9]; 100 μM): 6.07 ± 0.06; Cell Cycle Distribution S (HT-29 cells [9]; 100 μM): 4.10 ± 0.06; Cell cycle arrest, in words (HT-29 cells [9]): significant accumulation of cells in G1 phase
COc1c(OC)c(OC)c2c(=O)cc(-c3ccc(O)c(O)c3)oc2c1OC [H, 3′,4′-dihydroxy-5,6,7,8-tetramethoxyflavone] | 74.72 ± 0.2 | > 100 | 49.78 ± 1.80 | 4.37 ± 5.00 | 45.85 ± 6.80 | 49.29 ± 1.53 | 2.76 ± 3.90 | 47.95 ± 5.43 | 52.82 ± 0.15 | 5.49 ± 1.11 | 41.68 ± 0.93 | 62.04 ± 1.19 | 10.70 ± 0.89 | 27.27 ± 0.31 | 61.15 ± 7.03 | 25.94 ± 8.32 | 12.91 ± 15.34 | 63.21 ± 1.82 | 7.53 ± 0.81 | 29.26 ± 2.63 | IC50 (AGS cells [1]; AGS): 69.3 ± 4.23 µM; IC50 (COLO205 cells [2]; [13]): 90.1 ± 11.9 µM; AC50 (AGS cells [4]; AGS): > 100 µM; AC50 (COLO205 cells [5]; [14]): > 100 µM; AC50 (HL-60 cells [6]; [15]): > 100 µM; Cell cycle arrest, in words (HL-60 cells [8]): significant G1 arrest; Cell Cycle Distribution G0/G1 (HT-29 cells [9]; 10 μM): 64.87 ± 0.74; Cell Cycle Distribution G2/M (HT-29 cells [9]; 10 μM): 8.19 ± 0.09; Cell Cycle Distribution S (HT-29 cells [9]; 10 μM): 26.95 ± 0.64; Cell Cycle Distribution G0/G1 (HT-29 cells [9]; 25 μM): 63.87 ± 0.92; Cell Cycle Distribution G2/M (HT-29 cells [9]; 25 μM): 8.45 ± 0.46; Cell Cycle Distribution S (HT-29 cells [9]; 25 μM): 27.68 ± 1.37; Cell Cycle Distribution G0/G1 (HT-29 cells [9]; 50 μM): 63.10 ± 0.16; Cell Cycle Distribution G2/M (HT-29 cells [9]; 50 μM): 7.94 ± 0.84; Cell Cycle Distribution S (HT-29 cells [9]; 50 μM): 28.98 ± 0.69; Cell Cycle Distribution G0/G1 (HT-29 cells [9]; 100 μM): 61.66 ± 1.44; Cell Cycle Distribution G2/M (HT-29 cells [9]; 100 μM): 4.98 ± 1.55; Cell Cycle Distribution S (HT-29 cells [9]; 100 μM): 33.37 ± 0.11
COc1ccc(-c2cc(=O)c3c(OC)c(OC)c(OC)c(OC)c3o2)cc1O [I, 3′-hydroxy-5,6,7,8,4′-pentamethoxyflavone] | > 100 | > 100 | 44.51 ± 2.37 | 9.23 ± 0.16 | 46.27 ± 2.21 | 43.22 ± 1.85 | 11.92 ± 0.64 | 44.86 ± 2.49 | 50.55 ± 0.97 | 10.75 ± 0.41 | 38.71 ± 1.38 | 50.23 ± 1.94 | 6.36 ± 1.69 | 43.41 ± 3.62 | 65.54 ± 4.07 | 13.24 ± 11.61 | 21.31 ± 15.55 | 60.78 ± 1.52 | 7.95 ± 0.71 | 31.28 ± 0.81 | IC50 (AGS cells [1]; AGS): 65.75 ± 0.41 µM; IC50 (COLO205 cells [2]; [13]): 76 ± 1.88 µM; AC50 (AGS cells [4]; AGS): > 100 µM; AC50 (COLO205 cells [5]; [14]): > 100 µM; AC50 (HL-60 cells [6]; [15]): 94.6 ± 1.5 µM; Cell Cycle Distribution G0/G1 (HT-29 cells [9]; 10 μM): 61.09 ± 1.06; Cell Cycle Distribution G2/M (HT-29 cells [9]; 10 μM): 7.89 ± 0.23; Cell Cycle Distribution S (HT-29 cells [9]; 10 μM): 31.02 ± 1.30; Cell Cycle Distribution G0/G1 (HT-29 cells [9]; 25 μM): 60.90 ± 0.87; Cell Cycle Distribution G2/M (HT-29 cells [9]; 25 μM): 7.48 ± 0.64; Cell Cycle Distribution S (HT-29 cells [9]; 25 μM): 31.63 ± 0.23; Cell Cycle Distribution G0/G1 (HT-29 cells [9]; 50 μM): 66.36 ± 0.88; Cell Cycle Distribution G2/M (HT-29 cells [9]; 50 μM): 9.83 ± 0.61; Cell Cycle Distribution S (HT-29 cells [9]; 50 μM): 23.81 ± 0.28; Cell Cycle Distribution G0/G1 (HT-29 cells [9]; 100 μM): 74.18 ± 2.33; Cell Cycle Distribution G2/M (HT-29 cells [9]; 100 μM): 0.37 ± 0.40; Cell Cycle Distribution S (HT-29 cells [9]; 100 μM): 25.45 ± 2.72; Cell cycle arrest, in words (HT-29 cells [9]): significant accumulation of cells in G1 phase
COc1ccc(-c2cc(=O)c3c(O)c(OC)c(OC)c(OC)c3o2)cc1OC [J, 5-hydroxy-6,7,8,3′,4′-pentamethoxyflavone] | > 100 | > 100 | 53.10 ± 0.46 | 7.94 ± 0.06 | 38.96 ± 0.51 | 51.74 ± 1.57 | 9.06 ± 0.54 | 39.20 ± 2.10 | 51.30 ± 1.68 | 8.20 ± 1.19 | 40.50 ± 2.87 | 49.22 ± 0.13 | 7.93 ± 0.36 | 42.86 ± 0.48 | 51.29 ± 0.74 | 7.45 ± 0.83 | 41.27 ± 0.09 | 64.81 ± 0.41 | 9.52 ± 0.05 | 25.68 ± 0.46 | IC50 (AGS cells [1]; AGS cells): > 100 µM; IC50 (COLO205 cells [2]; [10]): > 100 µM; AC50 (AGS cells [4]; AGS cells): > 100 µM; AC50 (COLO205 cells [5]; [11]): > 100 µM; AC50 (HL-60 cells [6]; [12]): > 100 µM; Cell Cycle Distribution G0/G1 (HT-29 cells [9]; 10 μM): 62.87 ± 0.40; Cell Cycle Distribution G2/M (HT-29 cells [9]; 10 μM): 9.02 ± 0.16; Cell Cycle Distribution S (HT-29 cells [9]; 10 μM): 28.11 ± 0.57; Cell Cycle Distribution G0/G1 (HT-29 cells [9]; 25 μM): 62.04 ± 1.24; Cell Cycle Distribution G2/M (HT-29 cells [9]; 25 μM): 8.46 ± 0.09; Cell Cycle Distribution S (HT-29 cells [9]; 25 μM): 29.51 ± 1.15; Cell Cycle Distribution G0/G1 (HT-29 cells [9]; 50 μM): 60.39 ± 0.28; Cell Cycle Distribution G2/M (HT-29 cells [9]; 50 μM): 9.93 ± 0.06; Cell Cycle Distribution S (HT-29 cells [9]; 50 μM): 29.55 ± 0.52; Cell Cycle Distribution G0/G1 (HT-29 cells [9]; 100 μM): 62.44 ± 1.00; Cell Cycle Distribution G2/M (HT-29 cells [9]; 100 μM): 7.89 ± 0.69; Cell Cycle Distribution S (HT-29 cells [9]; 100 μM): 29.67 ± 1.68
